Test results: patent US20250144442A1, “LIGHT-GUIDING ADHESIVE PATCH” (SAMSUNG LIFE PUBLIC WELFARE FOUNDATION, priority 2023, published 2025)

Test system: malignant glioma U87 cell line
Experiment: WST-1 cell viability assay for PDT anti-cancer effectiveness
Assay type: cell-based
Settings: 50 μM Hypericin, 2 hours incubation at 37° C., U87 cells, no simultaneous light; FIG. 11a
Experimental: To maximize light transmission, a 530±15 nm LED was used to verify the improvement in PDT efficiency with a developed light-guiding adhesive patch using the malignant glioma U87 cell line.
Specifically, the anti-cancer effectiveness through PDT was verified using the WST-1 cell viability assay. During the PDT efficiency verification, initial tests were conducted to establish PDT conditions, investigating the toxicity of the photosensitizer and light exposure.

Cc1cc(O)c2c(=O)c3c(O)cc(O)c4c5c(O)cc(O)c6c(=O)c7c(O)cc(C)c8c1c2c(c34)c(c78)c65 [Hypericin]
inhibition of cell viability (toxicity of the photosensitizer): No specific inhibition of cell viability
